# Reference: patent publication US11000033B2, “Ketone or oxime compound, and herbicide” (NISSAN CHEMICAL CORPORATION, priority 2014, dated 2021)
# Tests used:
# Type in all cases: in vivo
# transplanted rice plant = assay: Test Example 1: effect on crop, application before weed generation in submerged conditions (symbol a); settings: application herbicide amount 320 g/ha
# In short: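 Rice at 2.5 leaf stage transplanted into submerged soil (4 cm depth) sown with three weed species; herbicide applied before weed emergence.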
# soybean = assay: Test Example 4: effect on crop by soil treatment (symbol d)
# In short: (§1)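 Plants grew in a 25° C. to 30° C. greenhouse after spot-sowing of seeds, including beet, rapeseed, wheat and rice, into sterilized diluvial soil under roughly 1.5 cm of cover soil.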
# Lolium multiflorum Lam. = assay: Test Example 4: herbicidal effect by soil treatment (symbol K)
# In short: (§2)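 Seeds were sown in sterilized diluvial soil, covered with about 1.5 cm of soil, and the soil surface was sprayed with a water-diluted emulsion of the compound at a predetermined rate. Plants grew in a greenhouse at 25° C. to 30° C.; effects were scored visually 3 weeks after application.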
# rapeseed = assay: Test Example 5: effect on crop by foliage application, plastic box (symbol g); settings: 320 g/ha, 3 weeks after application
# In short: (§3)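 Diluvial soil, sterilized and boxed (21 × 13 × 7 cm), received spot-sown seed covered by about 1.5 cm soil; plants were then greenhouse-grown at 25–30° C.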
# Scirpus juncoides = assay: Test Example 1: herbicidal activity, application before weed generation in submerged conditions (symbol B); settings: application herbicide amount 320 g/ha
# In short: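 Greenhouse growth at 25–30 °C lasted 3 weeks after treatment, when each weed was graded 0–5 by herbicidal ratio. Treatment was a diluted emulsion applied to the water surface of 4 cm-submerged alluvial soil on the sowing day.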
# Galium spurium = assay: Test Example 5: herbicidal effect by foliage application, plastic box (symbol Q); settings: 320 g/ha, 3 weeks after application
# In short: (§4)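 Herbicide, formulated as an emulsion and diluted in water, is sprayed onto the aerial parts of 14-day seedlings. These were grown at 25° C. to 30° C. in sterilized diluvial soil; effects are graded after 3 weeks.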
# rice = assay: Test Example 4: effect on crop by soil treatment (symbol b)
# In short: as §1
# corn = assay: Test Example 5: effect on crop by foliage application, plastic box (symbol c); settings: 320 g/ha, 3 weeks after application
# In short: as §3
# Digitaria ciliaris = assay: Test Example 5: herbicidal effect by foliage application, plastic box (symbol F); settings: 320 g/ha, 3 weeks after application
# In short: as §4
# [1] = system: Echinochloa crus-galli var. crus-galli; assay: Test Example 5: herbicidal effect by foliage application, plastic box (symbol H); settings: 320 g/ha, 3 weeks after application
# In short: as §4
# Monochoria vaginalis = assay: Test Example 2: herbicidal activity, application during weed generation in submerged conditions (symbol C); settings: Table 23; application herbicide amount 320 g/ha; grade 0-5 by criteria of Test Example 1
# In short: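 Flooded-soil post-emergence test: emulsion of compound, water-diluted to target rate, applied to paddy water surface at 1–2 leaf stage of mixed-sown weeds (alluvial soil, 4 cm water, 25–30° C. greenhouse); visual rating 3 weeks after application.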
# Alopecurus myosuroides [2] = assay: Test Example 4: herbicidal effect by soil treatment (symbol J)
# In short: as §2
# wheat = assay: Test Example 4: effect on crop by soil treatment (symbol e)
# In short: as §1
# Alopecurus myosuroides [3] = assay: Test Example 5: herbicidal effect by foliage application, plastic box (symbol J); settings: 320 g/ha, 3 weeks after application
# In short: as §4
# [4] = application herbicide amount 320 g/ha
Structure (SMILES),"Effect grade on crop, a: transplanted rice plant (transplanted rice plant)",d (soybean) effect on crop grade (soybean; [4]),K (Lolium multiflorum Lam.) herbicidal effect grade (Lolium multiflorum Lam.; [4]),"g: rapeseed, effect on crop grade (rapeseed)","Herbicidal effect grade, B: Scirpus juncoides (Scirpus juncoides)","Q: Galium spurium, herbicidal effect grade (Galium spurium)",b (directly sowed rice plant) effect on crop grade (rice; [4]),"c: corn, effect on crop grade (corn)","F: Digitaria ciliaris, herbicidal effect grade (Digitaria ciliaris)","H: Echinochloa crus-galli var. crus-galli, herbicidal effect grade [1]","Herbicidal effect grade, C: Monochoria vaginalis (Monochoria vaginalis)",J (Alopecurus myosuroides) herbicidal effect grade (Alopecurus myosuroides [2]; [4]),e (wheat) effect on crop grade (wheat; [4]),"J: Alopecurus myosuroides, herbicidal effect grade (Alopecurus myosuroides [3])","g: rapeseed, effect on crop (criteria 0-5) (rapeseed)","Q: Galium spurium, herbicidal effect (criteria 0-5) (Galium spurium)","c: corn, effect on crop (criteria 0-5) (corn)","F: Digitaria ciliaris, herbicidal effect (criteria 0-5) (Digitaria ciliaris)","H: Echinochloa crus-galli var. crus-galli, herbicidal effect (criteria 0-5) [1]","J: Alopecurus myosuroides, herbicidal effect (criteria 0-5) (Alopecurus myosuroides [3])",also measured
CCON=C(C)CC1CC(O)=C(c2c(C)cc(C)cc2C)C1=O (centres unmarked) [1-003],5 (Herbicidal ratio of 90% or more (almost completely withered)),3 (Herbicidal ratio of 40% or higher and lower than 70%),5 (Herbicidal ratio of 90% or more (almost completely withered)),4 (Herbicidal ratio of 70% or higher and lower than 90%),4 (Herbicidal ratio of 70% or higher and lower than 90%),3 (Herbicidal ratio of 40% or higher and lower than 70%),5 (Herbicidal ratio of 90% or more (almost completely withered)),5 (Herbicidal ratio of 90% or more (almost completely withered)),5 (Herbicidal ratio of 90% or more (almost completely withered)),5 (Herbicidal ratio of 90% or more (almost completely withered)),3 (Herbicidal ratio of 40% or higher and lower than 70%),5 (Herbicidal ratio of 90% or more (almost completely withered)),5 (Herbicidal ratio of 90% or more (almost completely withered)),5 (Herbicidal ratio of 90% or more (almost completely withered)),,,,,,,
COCCOC1=C(c2c(C)cc(C)cc2C)C(=O)C(CC(C)=NOC)C1 (centres unmarked) [1-037],0 (Herbicidal ratio of 5% or lower (almost no effect)),0 (Herbicidal ratio of 5% or lower (almost no effect)),0 (Herbicidal ratio of 5% or lower (almost no effect)),0 (Herbicidal ratio of 5% or lower (almost no effect)),0 (Herbicidal ratio of 5% or lower (almost no effect)),0 (Herbicidal ratio of 5% or lower (almost no effect)),0 (Herbicidal ratio of 5% or lower (almost no effect)),0 (Herbicidal ratio of 5% or lower (almost no effect)),0 (Herbicidal ratio of 5% or lower (almost no effect)),0 (Herbicidal ratio of 5% or lower (almost no effect)),0 (Herbicidal ratio of 5% or lower (almost no effect)),0 (Herbicidal ratio of 5% or lower (almost no effect)),0 (Herbicidal ratio of 5% or lower (almost no effect)),0 (Herbicidal ratio of 5% or lower (almost no effect)),,,,,,,
CCC(CC1CC(O)=C(c2c(C)cc(C)cc2C)C1=O)=NOC (centres unmarked) [1-038],5 (Herbicidal ratio of 90% or more (almost completely withered)),1 (Herbicidal ratio of 5% or higher and lower than 20%),5 (Herbicidal ratio of 90% or more (almost completely withered)),4 (Herbicidal ratio of 70% or higher and lower than 90%),5 (Herbicidal ratio of 90% or more (almost completely withered)),0 (Herbicidal ratio of 5% or lower (almost no effect)),5 (Herbicidal ratio of 90% or more (almost completely withered)),4 (Herbicidal ratio of 70% or higher and lower than 90%),5 (Herbicidal ratio of 90% or more (almost completely withered)),5 (Herbicidal ratio of 90% or more (almost completely withered)),4 (Herbicidal ratio of 70% or higher and lower than 90%),5 (Herbicidal ratio of 90% or more (almost completely withered)),3 (Herbicidal ratio of 40% or higher and lower than 70%),5 (Herbicidal ratio of 90% or more (almost completely withered)),,,,,,,
C=CC(CC1CC(O)=C(c2c(C)cc(C)cc2C)C1=O)=NOC (centres unmarked) [1-086],3 (Herbicidal ratio of 40% or higher and lower than 70%),,,,0 (Herbicidal ratio of 5% or lower (almost no effect)),,,,,,,,,,3 (Herbicidal ratio of 40% or higher and lower than 70%),0 (Herbicidal ratio of 5% or lower (almost no effect)),3 (Herbicidal ratio of 40% or higher and lower than 70%),0 (Herbicidal ratio of 5% or lower (almost no effect)),5 (Herbicidal ratio of 90% or more (almost completely withered)),4 (Herbicidal ratio of 70% or higher and lower than 90%),"d: soybean, effect grade on crop (soybean; 320 g/ha): 0 (Herbicidal ratio of 5% or lower (almost no effect)); K: Lolium multiflorum Lam., herbicidal effect grade (Lolium multiflorum Lam.; 320 g/ha): 5 (Herbicidal ratio of 90% or more (almost completely withered)); b: directly sowed rice plant, effect grade on crop (rice; 320 g/ha): 5 (Herbicidal ratio of 90% or more (almost completely withered)); J: Alopecurus myosuroides, herbicidal effect grade (Alopecurus myosuroides [2]; 320 g/ha): 3 (Herbicidal ratio of 40% or higher and lower than 70%); e: wheat, effect grade on crop (wheat; 320 g/ha): 0 (Herbicidal ratio of 5% or lower (almost no effect))"
CC(CC1CC(O)=C(c2c(C)cc(Br)cc2C)C1=O)=NOCC(=O)N(C)C (mixture of isomers) [9-029],,,,4 (Herbicidal ratio of 70% or higher and lower than 90%),,0 (Herbicidal ratio of 5% or lower (almost no effect)),,4 (Herbicidal ratio of 70% or higher and lower than 90%),3 (Herbicidal ratio of 40% or higher and lower than 70%),3 (Herbicidal ratio of 40% or higher and lower than 70%),0 (Herbicidal ratio of 5% or lower (almost no effect)),,,1 (Herbicidal ratio of 5% or higher and lower than 20%),,,,,,,"Effect on crop grade, d: soybean (soybean; [4]): 0 (Herbicidal ratio of 5% or lower (almost no effect)); Herbicidal effect grade, K: Lolium multiflorum Lam. (Lolium multiflorum Lam.; [4]): 4 (Herbicidal ratio of 70% or higher and lower than 90%); Effect on crop grade, b: directly sowed rice plant (rice; [4]): 1 (Herbicidal ratio of 5% or higher and lower than 20%); Herbicidal effect grade, J: Alopecurus myosuroides (Alopecurus myosuroides [2]; [4]): 3 (Herbicidal ratio of 40% or higher and lower than 70%); Effect on crop grade, e: wheat (wheat; [4]): 0 (Herbicidal ratio of 5% or lower (almost no effect))"
CON=C(C)CC1CC(OC(=O)COc2cccc(C#N)c2)=C(c2c(C)cc(C)cc2C)C1=O (centres unmarked) [1-074],5 (Herbicidal ratio of 90% or more (almost completely withered)),0 (Herbicidal ratio of 5% or lower (almost no effect)),5 (Herbicidal ratio of 90% or more (almost completely withered)),,5 (Herbicidal ratio of 90% or more (almost completely withered)),,5 (Herbicidal ratio of 90% or more (almost completely withered)),,,,,5 (Herbicidal ratio of 90% or more (almost completely withered)),4 (Herbicidal ratio of 70% or higher and lower than 90%),,4 (Herbicidal ratio of 70% or higher and lower than 90%),1 (Herbicidal ratio of 5% or higher and lower than 20%),5 (Herbicidal ratio of 90% or more (almost completely withered)),5 (Herbicidal ratio of 90% or more (almost completely withered)),5 (Herbicidal ratio of 90% or more (almost completely withered)),5 (Herbicidal ratio of 90% or more (almost completely withered)),
